Experimental data: US11512821B2, “Systems and method for evaluating ultraviolet-protection products” (ABICH INC., priority 2019, dated 2022)
Like-named read-outs stand apart in the source and are kept apart here.

What was measured:
[1] = test system: CD86 (B7.2); details: for CD86 % compared to CN: THP-1, 24 h; for CD86 MFI: THP-1, 24 h at 37° C.
Text: (§1) The purpose of the test is to assess the absence of pro-sensitizing skin effects from finished products or raw materials intended for contact with the skin or mucous membranes, such as medical devices, cosmetics, toys or textiles. In the present study, we used a human monocytes cell line (THP-1) as prototypic blood-derived immunologically active cell. On these cells, we tested the expression of two costimulatory molecules, CD54 (Intercellular Adhesion Molecule) and CD86 (B7.2), using as a positive control Nickel sulphate, a well-known contact sensitizing agent. Nickel sulphate is able to cause in vivo allergic immune reactions (skin sensitization) and it is also been widely used to study in vitro immune response modulation. As silicone elastomer (Silicone 30A—example of medical grade silicone) was tested at two concentrations, against Nickel positive controls.
(§2) The increasing expression level of CD54 and CD86 on monocytes is a signal of activation of the immune response derived from the exposition to a potentially sensitizing contact antigen. The expression of co-stimulatory molecules on the dendritic cells means activation of the immunological response in terms of capability to present the antigen in the typical tissues (skin in this case), where, in vivo, the immune protective response is triggered.
(§3) The normative reference is OECD Guideline 442E, “In vitro Skin Sensitization; Human Cell Line Activation Test (hCLAT)”, which is hereby incorporated by reference in its entirety. The method differs from the OECD Guideline as the test is performed in a single experimental session instead of three independent tests. As positive control, Nickel Sulfate is used instead of DNCB. […] In addition, the acceptance criteria and choice of concentrations to be used in the final test have been optimized according to the laboratory's historical results over the past 10 years.
(§4) The test is carried out on a monocyte-like human line called THP-1. Cells are kept in RPMI containing 10% FCS and 2 mM glutamine.
(§5) The sample has been eluted in phosphate buffered saline (1 g/5 ml) for 24 hours at 37° C. The eluted sample was diluted in the cell culture medium at different concentrations for the preliminary cytotoxicity screening on the cells aimed to decide the best concentration to test it without cytotoxic effects on the monocytes, in order to avoid false results. Cell medium exposed to the same experimental conditions were used as a negative control.
(§6) Following the results of the preliminary assay, the eluted sample was diluted directly in the cell medium at the two different dilutions in order to obtain the desired final concentrations in contact with the THP-1 cells in vitro. The exposure has been carried out for 24 h at 37° C. with 5% CO2.
(§7) After the incubation with the tested substance and the controls, cells are collected, checked under the microscope for their viability by staining with Trypan Blue dye and counting in a cell counter chamber, washed in PBS and then marked with a fluoresceinated anti-Intercellular Adhesion Molecule (CD54) or B7.2 (CD86) antibody and in both cases with a propidium iodide (PI) solution to simultaneously measure the percentage of dead cells. To this aim, a PI working solution (1 ml PI stock solution (1 mg PI/ml water) in 20 ml PI buffer (1 g glucose/l PBS without Ca/Mg)) is added to […]. A gate is set on the negative cells in order to exclude the dead cells. Only viable cells are included for analyses of CD54 or CD86 expression. After washing, to eliminate the excess antibody, the MFI (Mean Fluorescence Intensity) linked to the cells is evaluated by means of a flux cytofluorimeter (FACS, Fluorescence Activated Cell Sorter, Becton Dickinson, Mountain View, Calif.). This value is proportional to the expression of co-stimulatory molecules.
(§8) The results are expressed in terms of MFI (Mean Fluorescence Intensity).

[2] = test system: CD54 (Intercellular Adhesion Molecule); details: for CD54 % compared to Negative Control (CN): THP-1, 24 h; for CD54 MFI: THP-1, 24 h at 37° C.
Text: as §1, §2, §3, §4, §5, §6, §7, §8

[3] = test system: THP-1 cells; type: cell-based; details: percent of living cells (PI negative), b192
Text: Cell vitality: The percent of living cells (PI negative) must be above 80% in all samples.

O.O.O.O.O.O.O=S(=O)([O-])[O-].[Ni+2] [Nickel Sulfate, Nickel Sulphate (NiSO4.6H2O)]
CD86 % compared to CN ([1]; 4 μg/ml): 27.95%
CD86 MFI ([1]; 4 μg/ml): 26.32
CD86 % compared to CN ([1]; 10 μg/ml): 146.23%
CD86 MFI ([1]; 10 μg/ml): 50.65
CD86 % compared to CN ([1]; 20 μg/ml): 399.03%
CD86 MFI ([1]; 20 μg/ml): 102.65
CD54 % compared to Negative Control (CN) ([2]; 4 μg/ml): 35.74%
CD54 MFI ([2]; 4 μg/ml): 33.65
CD54 % compared to Negative Control (CN) ([2]; 10 μg/ml): 63.61%
CD54 MFI ([2]; 10 μg/ml): 40.56
CD54 % compared to Negative Control (CN) ([2]; 20 μg/ml): 163.94%
CD54 MFI ([2]; 20 μg/ml): 65.43
PI ([3]; 4 μg/ml): 88
PI ([3]; 10 μg/ml): 86
PI ([3]; 20 μg/ml): 86
